Results as given in ChEMBL document CHEMBL1201862, “PubChem BioAssay data set” (2004).
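Cells were grown in 96-well plates and exposed to each compound for 48 hours at five concentrations; endpoints were interpolated linearly between bracketing concentrations, or set to the highest concentration if not reached. GI50 is the concentration that inhibits growth by half.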 The source made the active and inactive calls. Cut-off read from the data, not from the text of the source: active = GI50 up to about 1.1 µM and inactive = higher.

Experiments:
Assay in all cases: NCI-60 cell line screen, 48 h
RXF 393 = system: RXF 393
M14 = system: M14
A498 = system: A498
CAKI-1 = system: CAKI-1
MOLT-4 = system: MOLT-4
CCRF-CEM = system: CCRF-CEM
UACC-257 = system: UACC-257
MDA-N = system: MDA-N
LOX IMVI = system: LOX IMVI
MDA-MB-435 = system: MDA-MB-435
SN12C = system: SN12C
A549 = system: A549
SR = system: SR
OVCAR-5 = system: OVCAR-5
NCI-H23 = system: NCI-H23
OVCAR-3 = system: OVCAR-3
HOP-92 = system: HOP-92
SW-620 = system: SW-620
SK-OV-3 = system: SK-OV-3
MDA-MB-231 = system: MDA-MB-231
HCC 2998 = system: HCC 2998
SNB-75 = system: SNB-75
NCI-H460 = system: NCI-H460
SK-MEL-5 = system: SK-MEL-5
KM12 = system: KM12
NCI-H226 = system: NCI-H226
MCF7 = system: MCF7
SK-MEL-2 = system: SK-MEL-2
IGROV-1 = system: IGROV-1
RPMI-8226 = system: RPMI-8226
COLO 205 = system: COLO 205
UO-31 = system: UO-31
DU-145 = system: DU-145
Malme-3M = system: Malme-3M
BT-549 = system: BT-549
PC-3 = system: PC-3
SF-268 = system: SF-268
T47D = system: T47D
HOP-62 = system: HOP-62
U-251 = system: U-251
SK-MEL-28 = system: SK-MEL-28
OVCAR-4 = system: OVCAR-4
ACHN = system: ACHN
TK-10 = system: TK-10
SF-539 = system: SF-539
HCT-15 = system: HCT-15
OVCAR-8 = system: OVCAR-8
SNB-19 = system: SNB-19
HT-29 = system: HT-29
HCT-116 = system: HCT-116
786-0 = system: 786-0
NCI/ADR-RES = system: NCI/ADR-RES
Hs-578T = system: Hs-578T
K562 = system: K562
EKVX = system: EKVX
SF-295 = system: SF-295
UACC-62 = system: UACC-62
NCI-H522 = system: NCI-H522
HL-60 = system: HL-60

Measured: GI50

CCCC#CC(O)(C(=O)OC1CCN(C)CC1)C1CCCCC1 (centres undefined)
inactive: RXF 393 > 100 µM | M14 58.6 µM | A498 94.6 µM | CAKI-1 > 100 µM | MOLT-4 91.6 µM | CCRF-CEM > 100 µM | UACC-257 46.6 µM | MDA-N > 100 µM | LOX IMVI > 100 µM | MDA-MB-435 > 100 µM | SN12C > 100 µM | A549 > 100 µM | SR > 100 µM | OVCAR-5 > 100 µM | NCI-H23 > 100 µM | OVCAR-3 > 100 µM | HOP-92 85.7 µM | SW-620 > 100 µM | SK-OV-3 > 100 µM | MDA-MB-231 > 100 µM | HCC 2998 > 100 µM | SNB-75 57 µM | NCI-H460 > 100 µM | SK-MEL-5 38.9 µM | KM12 > 100 µM | NCI-H226 94.4 µM | MCF7 > 100 µM | SK-MEL-2 > 100 µM | IGROV-1 > 100 µM | RPMI-8226 > 100 µM | COLO 205 94.6 µM | UO-31 29 µM | DU-145 > 100 µM | Malme-3M > 100 µM | BT-549 88.7 µM | PC-3 48.3 µM | SF-268 > 100 µM | T47D > 100 µM | HOP-62 52 µM | U-251 > 100 µM | SK-MEL-28 > 100 µM | OVCAR-4 > 100 µM | ACHN > 100 µM | TK-10 > 100 µM | SF-539 > 100 µM | OVCAR-8 > 100 µM | SNB-19 > 100 µM | HT-29 55.2 µM | HCT-116 > 100 µM | 786-0 > 100 µM | NCI/ADR-RES > 100 µM | Hs-578T 14.1 µM | K562 > 100 µM | EKVX > 100 µM | SF-295 > 100 µM | UACC-62 > 100 µM
> 100 µM: HCT-15

O=C(NCCCCCCCCNC(=O)Nc1cccc2ccccc12)Nc1cccc2ccccc12
inactive: RXF 393 22.6 µM | M14 > 100 µM | A498 11 µM | CAKI-1 40.9 µM | MOLT-4 41.6 µM | CCRF-CEM 12.9 µM | UACC-257 > 100 µM | MDA-N 20.3 µM | LOX IMVI 8.34 µM | MDA-MB-435 17.3 µM | SN12C 18.4 µM | A549 35.1 µM | SR > 10 µM | OVCAR-5 41.7 µM | NCI-H23 30.4 µM | OVCAR-3 36.5 µM | HOP-92 6.92 µM | SW-620 9.66 µM | MDA-MB-231 7.69 µM | HCC 2998 30.1 µM | NCI-H522 16.1 µM | SNB-75 35.5 µM | NCI-H460 3.5 µM | SK-MEL-5 42.3 µM | KM12 > 100 µM | MCF7 13.8 µM | HL-60 33.4 µM | SK-MEL-2 83.9 µM | IGROV-1 50.6 µM | RPMI-8226 > 100 µM | COLO 205 35.6 µM | UO-31 21.4 µM | DU-145 > 100 µM | Malme-3M > 100 µM | BT-549 31.6 µM | PC-3 72.1 µM | SF-268 14.1 µM | T47D 24 µM | HOP-62 12.8 µM | U-251 2.76 µM | SK-MEL-28 57.7 µM | OVCAR-4 1.45 µM | ACHN 85.9 µM | TK-10 43.7 µM | SF-539 10.8 µM | OVCAR-8 18.5 µM | SNB-19 32.2 µM | HT-29 > 100 µM | HCT-116 9.55 µM | 786-0 10.1 µM | NCI/ADR-RES 46.7 µM | Hs-578T 14.2 µM | K562 14.5 µM | EKVX 62.1 µM | SF-295 28.5 µM | UACC-62 32.9 µM
> 100 µM: HCT-15
